We go through 1 substance from patent publication US12427183B2, “Methods of treating cancer, infectious disease, and autoimmune disease using chemokines” (New York Society for the Relief of the Ruptured and …, priority 2016, dated 2025).

“Also recorded” adds a separate entry of the source.

Assay [1] has as its system purified pDCs from HDs or SSc patients. In words: IFN production by purified pDCs cultured with chemokine alone. Type of assay: cell-based, human. Further details: IFN production, CXCL4 alone: dose or concentration left out as unconfirmed. The procedure: (§1) PBMCs were prepared using Ficoll-Paque density gradient from fresh blood under internal Institutional Review Board-approved protocols. pDCs were isolated as previously described (Guiducci et al. 2008) using either using negative depletion (Miltenyi Biotech) or following cell sorting using a BD IFNLUX cell sorter. As part of the gating strategy, neutrophils were excluded by FSC/SSC and cells positive for CD14 (CD3 and CD19 as well) were first excluded in order to prevent the contamination by TLR8 positive cells and then positively gated on HLA-DR, CD123 and BDCA4 to purify the pDCs. All BDCA4+ cells also express BDCA2 (results not shown). As a result, pure pDCs were obtained and no markers for neutrophils (CD66) or myeloid cells were found by PCR. B cells were FACS sorted as CD19+ and monocytes as CD14+ cells. PBMCs were depleted of pDCs using BDCA4 beads from Miltenyi. pDCs were cultured at 10,000-30,000 cells per well in a 96-round bottom plate and incubated at 37° C., 5% CO2 and 95% humidity. After 24 hours of culture, the supernatant was collected for ELISA or Mutiplex cytokine assays. In some culture conditions, cells were cultured with the PI3Kδ inhibitor, CAL-101 (Selleck chemicals) for 24 hours. The RNA-based TLR8 agonist, ORN8-L previously described (Guidacci et al. 2013) was synthetized by Chemgenes Corporation. For the TLR8 activation assay, pDCs were incubated in complete media alone, 200 μg/ml ORN8-L in complete media or 200 μg/ml ORN8-L+ 10 μg/ml CXCL4 (R&D systems).
(§2) Supernatant from pDCs 24 hour culture was used for quantification of secreted chemokines and cytokines and measured with the use of an enzyme-linked immunosorbent assay (ELISA) or Luminex multiplex-beads immunoassay. CXCL4 ELISA (Ray Biotech) and IFNα, IP-10, IL-6, TNF Luminex assay (Millipore) was performed according to the manufacturer's protocol. Due to the variability in the number of cells obtained from the different patients and so we could compare the values across donors, all results were normalized to 10,000 cells. Of note, for all donors, pDCs were plated between 10,000-30,000 cells.
(§3) When purified pDCs from HDs or SSc patients were cultured with CXCL4 alone ([…]), there was no effect on IFN production.
5×10^5 PBMCs or pDC-depleted PBMCs were cultured in 96 wells plate and stimulated with 0.25 μM CpG DNA with or without 10 μg/ml CXCL4, CXCL10, CXCL12 or CCL5. Freshly isolated pDCs were resuspended at 5×10^4 cells/100 μl RPMI 1640 medium (Gibco) and stimulated with the 0.25 μM CpG with/without 10 μg/ml indicated chemokines. The supernatant was harvested after 18 h and IFN-α was measured by ELISA.

Assay [2] deals with healthy monocytes. In words: Cytokines in healthy monocytes with CXCL4. It is filed as cell-based, human.
Assay [3] concerns pDCs of HDs. Put plainly: TLR gene expression in purified pDCs from HDs cultured with cytokines or chemokines (qPCR). As to conditions: 10 μg/ml each, 24 hours, pDCs from HDs. It is filed as cell-based, human. Here is the method:
as §1
PCR reactions were performed as described previously with 10 ng of cDNA (Barrat et al. 2005). In brief, RNA was extracted from cells using the Qiagen RNeasy Mini Kit. Quantity of RNA was measured by Nanodrop and high-capacity cDNA Reverse Transcription kit was used to generate 20-50 ng cDNA. Gene expression levels were calculated based on relative threshold cycle (Ct) values. This was done using the formula Relative Ct=100×1.8 (HSK-GENE), where HSK is the mean CT of duplicate housekeeping gene runs (we used Ubiquitin), GENE is the mean CT of duplicate runs of the gene of interest, and 100 is arbitrarily chosen as a factor to bring all values above 0.
In particular, CXCL4 or IP-10 (two CXCR3B agonists) (10 μg/ml each) had no impact on TLR8 nor TLR7 and TLR9 expression levels in pDCs (FIG. 2C).

In assay [4] the test system is TLR9-mediated activation of pDCs. Put plainly: TLR9-mediated activation of purified pDCs (CpG with or without chemokines), IFN-α ELISA. It is filed as cell-based, human.
Assay [5] relates to TLR7-mediated activation of pDCs. Type of assay: cell-based, human. As to conditions: CXCL4 10 μg/ml; TLR7 agonist at suboptimal dose; similar in HDs and SSc patients.
For assay [6], the system named is TLR7-mediated activation of human B cells. Put plainly: TLR7-mediated activation of human B cells (R848 with or without CXCL4). As to conditions: R848 0.15 μM + CXCL4 10 μg/ml. It is filed as cell-based. Here is the method:
IL-6 and TNF gene levels were measured at 6 hour post culture by PCR, secretion of IL-6 and TNF were quantified using luminex and CD83 and CD80 expression was measured by flow cytometry at 24 hour post culture.

The subject of assay [7] is TLR8-mediated activation of SSc pDCs. In words: TLR8 activation assay of pDCs from SSc patients (ORN-8L with or without CXCL4). Type of assay: cell-based, human. Conditions: ORN-8L 200 μg/ml + CXCL4, 24 hours. The procedure: as §1, §2, §3

Regarding “CXCL4: small chemokine of the CXC family, 70-amino acid protein released from alpha-granules of activated platelets”, the “IFN-α secretion by pDCs, chemokine used alone” value in assay [1] (chemokine 10 μg/ml without CpG, results not shown) is “no effect”. Moreover, in assay [1] (purified pDCs from HDs or SSc patients, CXCL4 alone), the “IFN production, CXCL4 alone” value is listed as “no effect; also recorded: did not induce”. For the same substance, in assay [2], the “IFN-inducible IP-10 in healthy monocytes” value is recorded as “reduces”, the “IL-6 in healthy monocytes” value is reported as “increases” and the “TNF in healthy monocytes” value is recorded as “increases”. In assay [3], the “TLR8, TLR7 and TLR9 expression levels in pDCs” value is “no impact”. The “TLR9 response (IFN-α) of pDCs” value in assay [4] (CXCL4 10 μg/ml, CpG-C 0.1 μM or CpG-B 0.25 μM, suboptimal doses, similar in HDs and SSc patients) is recorded as “drastically impacted”. The “TLR9-induced response (IFN-α secretion) by pDCs” value in assay [4] (CpG 0.25 μM, chemokine 10 μg/ml (Example 17)) is listed as “superinduce”. Further, the “dependence of IFN-α superinduction on chemokine receptors” value in assay [4] (with AMG487 100 nM, AMD3100 10 μg/ml, anti-CXCR7 11G8 10 μg/ml, J113863 1.5 μM or Vicriviroc 0.1 μM) is listed as “independent of their chemokine receptors”. Besides, the “TLR7 response (IFN-α) of pDCs” value in assay [5] is given as “little to no effect”. In assay [6], the “gene expression or secretion of IL-6 when activated by TLR7” value is given as “little effect” and the “gene expression or secretion of TNF when activated by TLR7” value is on record as “little effect”. Also, in assay [7], the “IL-6 production in response to TLR8” value was “no effect” and the “TNF production in response to TLR8” value is “no effect”. In assay [7] (p<0.001), the “production of IFN-α in response to TLR8” value is “significantly increased” and the “production of IP-10 in response to TLR8” value is listed as “significantly increased”.
